# Assay results: US20230219965A1 (KSQ Therapeutics, Inc., priority 2020, published 2023)
# Where two headings read alike, the source gives them in different places.
# Key:
# [1] = Liver microsomal metabolic stability, human liver microsomes (HLM); details: human, liver microsomes
# USP1/UAF1 enzyme = USP1/UAF1 enzyme (Homo sapiens, UniProt O94782); assay: USP1/UAF1 deubiquitination assay (ubiquitin-rhodamine 110 substrate); assay type: biochemical; details: read-out: USP1 IC50 (Ub-Rho)
# Procedure, shortened: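 Cleavage of 150 nM ubiquitin-rhodamine 110 by 0.05 nM USP1/UAF1 was followed as fluorescence (Ex480/Em540, kinetic, 30 min) in Tris-HCl pH 7.8 buffer with EDTA, BSA, DTT and Tween-20. Compounds, top 10 μM, were preincubated with enzyme 10 min; % inhibition against no-enzyme and DMSO wells gave four-parameter IC50s.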
# [2] = Liver microsomal metabolic stability, rat liver microsomes (RLM); details: rat, liver microsomes, t1/2 (min) in RLM, 1 μM compound, 1 mg/mL microsomes, NADPH
# [3] = test system: Ub-PCNA levels in the nucleus of ES2 cells (USP1 activity); assay: ES2 Ub-PCNA immunofluorescence (IF) assay; assay type: cell-based; details: Homo sapiens, ES-2; ES2 cells, 3 hours, Ub-PCNA immunofluorescence; read-out: USP1 IC50 (Ub-PCNA)
# Procedure, shortened: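 AC50 derived from percent Ub-PCNA-positive nuclei, positivity set by a 95% cutoff from untreated-well intensities. Readout by imaging immunofluorescence (anti-Ub-PCNA, DAPI nuclear mask) after methanol fixation. Compound exposure: 3 h at 37° C, 0.3% DMSO final, on cells plated overnight.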
# [4] = ADME solubility determination in PBS at pH 2.0 and pH 7.4; assay type: physicochemical; details: phosphate buffered saline, 25 °C, thermodynamic from solid
# Procedure, shortened: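 Solubility was read by LC-MS/MS on centrifuged supernatants, calibrated to a known-concentration standard and corrected for dilution. Compound, dried down from 10 mM DMSO stock, was equilibrated 24 h at 25° C with shaking in PBS at pH 2.0 or pH 7.4.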
# [5] = pH 2, aqueous buffer, PBS pH 2.0, 25° C., read-out: Solubility at pH 2.0
# [6] = pH 7.4, aqueous buffer, PBS pH 7.4, 25° C., read-out: Solubility at pH 7.4
# USP1/UAF1 enzyme, sequence (O94782 whole entry): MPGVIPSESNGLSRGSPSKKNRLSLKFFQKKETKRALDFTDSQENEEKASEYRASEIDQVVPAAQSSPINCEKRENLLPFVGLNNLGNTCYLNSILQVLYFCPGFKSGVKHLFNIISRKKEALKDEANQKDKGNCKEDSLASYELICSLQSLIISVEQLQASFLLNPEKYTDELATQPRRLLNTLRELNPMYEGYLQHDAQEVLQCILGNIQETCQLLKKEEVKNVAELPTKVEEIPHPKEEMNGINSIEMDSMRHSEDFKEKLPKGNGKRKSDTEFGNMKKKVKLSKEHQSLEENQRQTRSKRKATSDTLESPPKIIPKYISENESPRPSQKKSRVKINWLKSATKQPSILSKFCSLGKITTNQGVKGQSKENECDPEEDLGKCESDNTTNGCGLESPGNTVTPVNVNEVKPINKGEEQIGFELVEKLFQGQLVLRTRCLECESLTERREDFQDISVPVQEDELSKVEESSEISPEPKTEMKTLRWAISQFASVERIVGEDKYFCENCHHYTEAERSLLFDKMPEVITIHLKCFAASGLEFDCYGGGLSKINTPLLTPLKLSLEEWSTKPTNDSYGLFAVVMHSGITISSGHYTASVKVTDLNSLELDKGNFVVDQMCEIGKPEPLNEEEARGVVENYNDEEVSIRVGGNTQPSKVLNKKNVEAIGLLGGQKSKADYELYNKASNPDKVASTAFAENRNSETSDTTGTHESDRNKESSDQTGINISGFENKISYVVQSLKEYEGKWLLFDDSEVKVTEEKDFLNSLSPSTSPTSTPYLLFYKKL
# USP1/UAF1 enzyme, sequence (Q8TAF3 whole entry partner): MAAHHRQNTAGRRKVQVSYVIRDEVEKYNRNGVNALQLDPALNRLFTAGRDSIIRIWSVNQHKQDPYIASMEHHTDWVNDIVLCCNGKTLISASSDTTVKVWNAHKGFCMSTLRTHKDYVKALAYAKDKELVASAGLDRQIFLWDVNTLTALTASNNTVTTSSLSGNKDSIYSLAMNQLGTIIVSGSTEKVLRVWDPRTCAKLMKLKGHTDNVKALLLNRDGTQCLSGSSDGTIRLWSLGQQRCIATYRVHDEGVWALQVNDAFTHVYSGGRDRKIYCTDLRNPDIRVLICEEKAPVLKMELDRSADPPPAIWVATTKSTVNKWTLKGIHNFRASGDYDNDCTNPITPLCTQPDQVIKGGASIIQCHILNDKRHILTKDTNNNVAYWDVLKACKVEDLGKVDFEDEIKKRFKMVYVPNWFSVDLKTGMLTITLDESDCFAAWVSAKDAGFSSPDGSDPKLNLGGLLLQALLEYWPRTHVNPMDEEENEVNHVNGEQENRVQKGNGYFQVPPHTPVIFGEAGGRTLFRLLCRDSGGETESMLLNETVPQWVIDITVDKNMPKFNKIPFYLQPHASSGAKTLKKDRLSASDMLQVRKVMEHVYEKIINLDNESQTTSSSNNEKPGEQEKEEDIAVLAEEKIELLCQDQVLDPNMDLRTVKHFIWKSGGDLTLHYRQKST
Compound,half-life at 1 μM [1],IC50 (USP1/UAF1 enzyme),half-life at 1 μM [2],IC50 [3],"solubility at 24 h [4, 5]","solubility at 24 h [4, 6]"
"CCn1cc(C(F)(F)F)nc1-c1ccc(CN2C(=O)C(NC)Cn3nc(-c4c(Cl)cnn4C(C)C)cc32)cc1 (stereo not drawn) [Example 236, 2-(4-chloro-1-isopropyl-1H-pyrazol-5-yl)-4-(4-(1-ethyl-4-(trifluoromethyl)-1H-imidazol-2-yl)benzyl)-6-(methylamino)-6,7-dihydropyrazolo[1,5-α]pyrimidin-5(4H)-one]",< 25 min,0.1 to 0.5 µM,< 25 min,> 0.5 µM,≥ 10 µM,< 10 µM
"CC(CF)n1cc(C(F)(F)F)nc1-c1ccc(NC2CCCn3nc(-c4c(OC(F)F)ncnc4C4CC4)cc32)cc1 (stereo not drawn) [Example 249, 2-(4-cyclopropyl-6-(difluoromethoxy)pyrimidin-5-yl)-N-(4-(1-(1-fluoropropan-2-yl)-4-(trifluoromethyl)-1H-imidazol-2-yl)phenyl)-4,5,6,7-tetrahydropyrazolo[1,5-a]pyridin-4-amine]",> 25 min,< 0.1 µM,> 25 min,< 0.1 µM,< 10 µM,< 10 µM
"CCn1cc(C(F)(F)F)nc1-c1ccc(NC2CCCn3nc(-c4c(OC(F)F)ncnc4C4CC4)cc32)cc1 (stereo not drawn) [Example 250, 2-(4-cyclopropyl-6-(difluoromethoxy)pyrimidin-5-yl)-N-(4-(1-ethyl-4-(trifluoromethyl)-1H-imidazol-2-yl)phenyl)-4,5,6,7-tetrahydropyrazolo[1,5-a]pyridin-4-amine]",> 25 min,< 0.1 µM,> 25 min,< 0.1 µM,< 10 µM,< 10 µM
"CCn1cc(C(F)(F)F)nc1-c1ccc(NC2CCCn3nc(-c4c(Cl)cnn4C(C)C)cc32)cc1C#N (stereo not drawn) [Example 255, 5-((2-(4-chloro-1-isopropyl-1H-pyrazol-5-yl)-4,5,6,7-tetrahydropyrazolo[1,5-a]pyridin-4-yl)amino)-2-(1-ethyl-4-(trifluoromethyl)-1H-imidazol-2-yl)benzonitrile]",> 25 min,< 0.1 µM,< 25 min,0.1 to 0.5 µM,< 10 µM,< 10 µM
"CCn1cc(C(F)(F)F)nc1-c1ccc(N(C)C2CCCn3nc(-c4c(Cl)cnn4C(C)C)cc32)cc1 (stereo not drawn) [Example 258, 2-(4-chloro-1-isopropyl-1H-pyrazol-5-yl)-N-(4-(1-ethyl-4-(trifluoromethyl)-1H-imidazol-2-yl)phenyl)-N-methyl-4,5,6,7-tetrahydropyrazolo[1,5-α]pyridin-4-amine]",< 25 min,< 0.1 µM,< 25 min,0.1 to 0.5 µM,< 10 µM,< 10 µM
"CCn1cc(C(F)(F)F)nc1-c1ccc(OC2CCCn3nc(-c4c(Cl)cnn4C(C)C)cc32)cc1 (stereo not drawn) [Example 261, 2-(4-chloro-1-isopropyl-1H-pyrazol-5-yl)-4-(4-(1-ethyl-4-(trifluoromethyl)-1H-imidazol-2-yl)phenoxy)-4,5,6,7-tetrahydropyrazolo[1,5-α]pyridine]",> 25 min,< 0.1 µM,> 25 min,< 0.1 µM,< 10 µM,< 10 µM
CCn1cc(C(F)(F)F)nc1-c1ccc(OC2CCCn3nc(-c4c(Cl)cnn4C(C)C)cc32)cc1F (stereo not drawn) [Example 262],> 25 min,< 0.1 µM,> 25 min,0.1 to 0.5 µM,< 10 µM,< 10 µM
"CCn1cc(C(F)(F)F)nc1-c1ccc(CC2OCCn3nc(-c4c(Cl)cnn4C(C)C)cc32)cc1 (stereo not drawn) [Example 265, 2-(4-chloro-1-isopropyl-1H-pyrazol-5-yl)-4-(4-(1-ethyl-4-(trifluoromethyl)-1H-imidazol-2-yl)benzyl)-6,7-dihydro-4H-pyrazolo[5,1-c][1,4]oxazine]",< 25 min,< 0.1 µM,< 25 min,0.1 to 0.5 µM,< 10 µM,< 10 µM

# Now from value to compound:
half-life at 1 μM [1],IC50 (USP1/UAF1 enzyme),half-life at 1 μM [2],IC50 [3],"solubility at 24 h [4, 5]","solubility at 24 h [4, 6]",Compound
< 25 min,< 0.1 µM,< 25 min,0.1 to 0.5 µM,≥ 10 µM,< 10 µM,"CCn1cc(C(F)(F)F)nc1-c1ccc(CN2C(=O)C(N(C)C)Cn3nc(-c4c(Cl)cnn4C(C)C)cc32)cc1 (stereo not drawn) [Example 235, 2-(4-chloro-1-isopropyl-1H-pyrazol-5-yl)-6-(dimethylamino)-4-(4-(1-ethyl-4-(trifluoromethyl)-1H-imidazol-2-yl)benzyl)-6,7-dihydropyrazolo[1,5-α]pyrimidin-5(4H)-one]"
> 25 min,< 0.1 µM,< 25 min,< 0.1 µM,< 10 µM,< 10 µM,"CCn1cc(C(F)(F)F)nc1-c1ccc(NC2CCCn3nc(-c4c(Cl)cnn4C(C)C)cc32)cc1 (stereo not drawn) [Example 237, 2-(4-chloro-1-isopropyl-1H-pyrazol-5-yl)-N-(4-(1-ethyl-4-(trifluoromethyl)-1H-imidazol-2-yl)phenyl)-4,5,6,7-tetrahydropyrazolo[1,5-α]pyridin-4-amine]"
> 25 min,< 0.1 µM,> 25 min,< 0.1 µM,≥ 10 µM,< 10 µM,"CCn1cc(C(F)(F)F)nc1-c1ccc(NC2CCCn3nc(-c4c(OC)ncnc4C4CC4)cc32)cc1 (stereo not drawn) [Example 240, 2-(4-cyclopropyl-6-methoxypyrimidin-5-yl)-N-(4-(1-ethyl-4-(trifluoromethyl)-1H-imidazol-2-yl)phenyl)-4,5,6,7-tetrahydropyrazolo[1,5-a]pyridin-4-amine]"
> 25 min,< 0.1 µM,> 25 min,0.1 to 0.5 µM,< 10 µM,< 10 µM,"CCn1cc(C(F)(F)F)nc1-c1ccc(NC2CCCn3nc(-c4c(Cl)cnn4C(C)C)cc32)cc1F (stereo not drawn) [Example 241, 2-(4-chloro-1-isopropyl-1H-pyrazol-5-yl)-N-(4-(1-ethyl-4-(trifluoromethyl)-1H-imidazol-2-yl)-3-fluorophenyl)-4,5,6,7-tetrahydropyrazolo[1,5-a]pyridin-4-amine]"
> 25 min,< 0.1 µM,> 25 min,< 0.1 µM,< 10 µM,< 10 µM,"Cc1cc(C(F)(F)F)nn1-c1ccc(NC2CCCn3nc(-c4c(Cl)cnn4C(C)C)cc32)cc1 (stereo not drawn) [Example 244, 2-(4-chloro-1-isopropyl-1H-pyrazol-5-yl)-N-(4-(5-methyl-3-(trifluoromethyl)-1H-pyrazol-1-yl)phenyl)-4,5,6,7-tetrahydropyrazolo[1,5-a]pyridin-4-amine]"
> 25 min,< 0.1 µM,> 25 min,0.1 to 0.5 µM,< 10 µM,< 10 µM,"CCn1cc(C(F)(F)F)nc1-c1ccc(NC2CCCn3nc(-c4c(Cl)cnn4C(C)C)cc32)cn1 (stereo not drawn) [Example 245, 2-(4-chloro-1-isopropyl-1H-pyrazol-5-yl)-N-(6-(1-ethyl-4-(trifluoromethyl)-1H-imidazol-2-yl)pyridin-3-yl)-4,5,6,7-tetrahydropyrazolo[1,5-a]pyridin-4-amine]"
> 25 min,< 0.1 µM,> 25 min,0.1 to 0.5 µM,≥ 10 µM,< 10 µM,"CCn1cc(C(F)(F)F)nc1-c1ccc(NC2CCCn3nc(-c4c(Cl)cnn4C(C)C)cc32)cc1OC (stereo not drawn) [Example 246, 2-(4-chloro-1-isopropyl-1H-pyrazol-5-yl)-N-(4-(1-ethyl-4-(trifluoromethyl)-1H-imidazol-2-yl)-3-methoxyphenyl)-4,5,6,7-tetrahydropyrazolo[1,5-a]pyridin-4-amine]"
< 25 min,< 0.1 µM,< 25 min,0.1 to 0.5 µM,< 10 µM,< 10 µM,"CCn1cc(C#N)nc1-c1ccc(NC2CCCn3nc(-c4c(Cl)cnn4C(C)C)cc32)cc1 (stereo not drawn) [Example 247, 2-(4-((2-(4-chloro-1-isopropyl-1H-pyrazol-5-yl)-4,5,6,7-tetrahydropyrazolo[1,5-a]pyridin-4-yl)amino)phenyl)-1-ethyl-1H-imidazole-4-carbonitrile]"
> 25 min,< 0.1 µM,> 25 min,< 0.1 µM,≥ 10 µM,≥ 10 µM,"COc1ncnc(C2CC2)c1-c1cc2n(n1)CCCC2Nc1ccc(-c2nc(C(F)(F)F)cn2C(C)CF)cc1 (stereo not drawn) [Example 248, 2-(4-cyclopropyl-6-methoxypyrimidin-5-yl)-N-(4-(1-(1-fluoropropan-2-yl)-4-(trifluoromethyl)-1H-imidazol-2-yl)phenyl)-4,5,6,7-tetrahydropyrazolo[1,5-a]pyridin-4-amine]"
